Data set [1] can be described thus: Stabilizer solubility study (Example 2). In kind it is physicochemical. Conditions: dissolved at 40° C., stored at 2° C.-5° C. over-night. On the procedure: The solubility of potential stabilizers to be tested for Bendamustine-HCl liquid formulation was evaluated in polypropylene glycol. The respective chemical was dissolved in water under continuous stirring at 40° C.

The conditions of data set [2]: formulation CaCl2 99.9 mg | PG ad 1000 mg.
Experimental: The purity of Bendamustine hydrochloride and quantity was determined as follows using a standard curve: • Column type: C18, 100×4.6 mm, 2.6 μm • Mobile phase: A: Water/ACN/TFA=950/50/1 v/v/v • B: Water/ACN/TFA=50/950/1 v/v/v • Column temperature: 25° C. • Autosampler temperature: 25° C. • Flow rate: 1.2 mL/min • Detection wavelength: 234 nm HPLC Gradient
To serve as a direct reference, Bendamustine-HCl was also included in the study.
The following compositions were prepared, filled into type 1 glass vials, closed with a rubber stopper and crimp caped. The closed vials were stored at a temperature of 40° C.
At defined time points samples were taken and analyzed be mans of the RP-HPLC method described in Example 1.
Data set [3] is described as follows: Dose dependent stabilization effect of calcium chloride in PEG400 (Example 8), purity and content by RP-HPLC. Conditions: PEG400/PG and PEG400/ethanol solvent mixtures; 40° C., 8 weeks. On the procedure: The organic solvent systems PEG400 with a small amount of alcoholic solvents 1,2-propanediol or ethanol (10% w/w) are to be investigated.
The following Bendamustine containing compositions were prepared. […] The preparations were filled into type 1 glass vials and stoppered with nitrogen overlay. The closed vials were stored at 40° C.:
The purity of Bendamustine-HCl was assessed via RP-HPLC and expressed by relative main peak area. Measurements were carried out in duplicate.
The content of Bendamustine-HCl was assessed via RP-HPLC using a 25 mg/g Bendamustine-HCl standard as reference. Standard solutions were freshly prepared for each individual sampling time point. Standard curves were recorded in duplicate at the beginning and at the end of each sequence. Samples were analyzed in duplicate.

The format of data set [4] is physicochemical. Conditions: in propylene glycol and in PEG400/PG solvent mixture. Here is the method: The following Bendamustine containing compositions (25 mg Bendamustine/HCl in 4 g solution) were prepared, filled into type 1 glass vials.

Like-named read-outs stand apart in the source and are kept apart here.

For the compound `[Br-].[Br-].[Ca+2]` [CaBr2], the “Outcome (stabilizer solubility)” value in data set [1] (target concentration 0.9 mol/kg) is “Complete dissolution”.

Turning to `Cn1c(CCCC(=O)O)nc2cc(N(CCCl)CCCl)ccc21` [Bendamustine], the “Purity at 40° C. as relative main peak area [%] by RP-HPLC” value is given as 99.7% in data set [2] (0 days), 98.9% in data set [2] (7 days) and 98.4% in data set [2] (14 days). The “Rel. content at 40° C. determined by RP-HPLC using a calibration curve” value (from here on “Rel. content at 40° C. determined”) worked out at 100% in data set [2] (0 days (ref. T=0)), 98.9% in data set [2] (7 days (ref. T=0)), 98.4% in data set [2] (14 days (ref. T=0)) and 95.3% in data set [2] (28 days (ref. T=0)).

As to `C[N+](C)(C)CCO.[Cl-]` [Choline-HCl, choline chloride], the “Outcome (stabilizer solubility)” value in data set [1] (target concentration 1.8 mol/kg) was “Complete dissolution”.

Turning to `[Ca+2].[Cl-].[Cl-]` [CaCl2, calcium chloride], the “stabilizing effect on Bendamustine (discussion, in words)” value in data set [3] is reported as “clear dose depending stabilizing effect”.

In the case of `O=NN(CCCl)C(=O)NCCCl` [Carmustine], the “Purity at 40° C. as relative main peak area [%] by RP-HPLC” value in data set [2] (0 days) is recorded as 95.8%; in data set [2] (7 days) it was 2.1%; in data set [2] (14 days), 2.0%; in data set [2] (28 days), 1.9%. In addition, the “Rel. content at 40° C. determined” value in data set [2] (0 days (ref. T=0)) turned out to be 100%; in data set [2] (7 days (ref. T=0)), 3.6%; in data set [2] (14 days (ref. T=0)), 1.3%; in data set [2] (28 days (ref. T=0)), 1.3%.

On to `CC(=O)[O-].[K+]` [KAc], for which the “stabilizing effect on Bendamustine (conclusion)” value in data set [4] is “no significant stabilizing effect”.

Consider `Nc1ncn([C@@H]2O[C@H](CO)[C@@H](O)[C@H]2O)c(=O)n1` [Azacitidine], for which the “Purity at 40° C. as relative main peak area [%] by RP-HPLC” value in data set [2] (0 days) came out at 100%; in data set [2] (7 days), 99.8%; in data set [2] (14 days) it was 97.7%; in data set [2] (28 days) it was 0.0%.

Take `N[C@@H](Cc1ccc(N(CCCl)CCCl)cc1)C(=O)O` [Melphalan]: the “Purity at 40° C. as relative main peak area [%] by RP-HPLC” value in data set [2] (0 days) is 99.8%; in data set [2] (7 days), 98.1%; in data set [2] (14 days), 97.4%; in data set [2] (28 days) it was 95.4%. The “Rel. content at 40° C. determined” value is given as 100% in data set [2] (0 days (ref. T=0)), 84.6% in data set [2] (7 days (ref. T=0)), 86.2% in data set [2] (14 days (ref. T=0)) and 86.5% in data set [2] (28 days (ref. T=0)).

These data come from patent US12161631B2, “Liquid pharmaceutical formulation” (PROJECT PHARMACEUTICS GMBH, priority 2018, dated 2024).
